Experimental data taken from US20070275935A1, “Estratriene Derivatives” (priority 2003, published 2007).

Key:
Pulmonary fibroblasts = experiment: bFGF-induced proliferation of human pulmonary fibroblasts; assay type: cell-based; settings: for effect on bFGF-induced increase in pulmonary fibroblast cell number, in words: concentration range of 1 to 1000 nM, bFGF 300 pM, 48 h; for pFib - bFGF: inhibition of bFGF (300 pM)-induced proliferation, mean and SEM, minimum 3 experiments, 1 μM, * not defined
Protocol: Samples of parenchyma from human lung transplant recipients were dissected away from the pleura, chopped into fragments of less than 1 mm^2 and allowed to adhere to plastic culture dishes in a minimal volume of DMEM containing serum (10%) and antibiotics (as used for HASM culture). After the tissue fragments had adhered to the base of the dish additional medium was added. Medium was changed twice weekly until an explant culture formed, at which time the tissue fragments were removed and the cells were passaged in a 1:3 split ratio by exposure to trypsin weekly to produce pulmonary fibroblast cultures.
Pulmonary fibroblasts were cultured in DMEM, serum-deprived for 24 h, in the presence or absence of the test compounds, and then stimulated with 300 pM bFGF for 48 h before harvest and counting of viable cells. An increase pulmonary fibroblast cell number was prevented by 4NOM over the concentration range of 1 to 1000 nM.
A range of the disclosed compounds was subsequently examined using the above assay system, and the results are summarized in Column E of Table 4. […] The proliferation of parenchymal fibroblasts is important in the development of pulmonary fibrosis.

[1] = test system: type II airway epithelial cell line, A549; experiment: Proliferation of A549 cells in response to 5% FCS; assay type: cell-based, human; settings: for effect on proliferation of A549 cells, in words (FIG. 2): 5% FCS, 48 h; for A549 PIC50 / IC50: proliferation in response to 5% FCS, pIC50 of 4.00 = inactive; for IC50: Homo sapiens, A549, read-out: A549 PIC50 (converted)
[2] = test system: GM-CSF production by Human Airway Smooth Muscle Cells; experiment: Interleukin-1α-mediated GM-CSF production by HASM cells (ELISA); assay type: cell-based; settings: for HASM - GM-CSF: inhibition of interleukin-1α (1 ng/ml)-mediated GM-CSF production, concentration not given, * not defined
[3] = test system: bovine aortic endothelial cells (BAEC); experiment: Proliferation of bovine aortic endothelial cells in response to 5% FCS; assay type: cell-based
Protocol: The effects of 4NO were evaluated in a number of non-smooth muscle cell types including the type II airway epithelial cell line, A549 (ATCC accession number ATCC CCL-185 Lung carcinoma human) (FIG. 2); the human breast tumour cell line, MCF7, (ATTC accession number ATCC HTB-22 breast adenocarcinoma, human) which expresses the estrogen receptor (FIG. 3); and in bovine aortic endothelial cells (BAEC) (FIG. 4).
The effects of test compounds were examined on proliferation of A549 cells in response to 5% fetal calf serum (FCS). Analogues were pre-incubated with A549 cells for 30 min before the addition of FCS. The incubation continued for 48 h before cell enumeration. Data are expressed as a percentage of the cell number in vehicle treated wells and are presented as the mean and standard error of the mean. Similarly the effects of 2MEO and 4NO on proliferation of MCF7 in response to 5% FCS or epidermal growth factor (EGF, 300 pM) were examined, as were the effects of 2MEO and 4NO on proliferation of BAEC in response to 5% FCS. The incubation parameters were the same as described above and results are presented as the mean and standard error of the mean.

[4] = test system: Human airway smooth muscle (HASM) cells; experiment: bFGF-induced proliferation of human airway smooth muscle (HASM) cells, cell number after 48 h; assay type: cell-based; settings: bFGF 300 pM, mean ± SEM (n), without analogue 135.8 ± 3.7
Protocol: Human airway smooth muscle (HASM) cells were cultured from macroscopically normal bronchi (0.5-2 cm diameter) obtained from lung resection or heart-lung transplant specimens provided by the Alfred Hospital (Melbourne) according to methods published in detail previously (Fernandes et al., 1999).
Approximately 0.1 g of smooth muscle was stripped from the wall of the bronchus for each cell culture. Dissected tissue was immersed in Dulbecco's modified Eagle's medium (DMEM) (Flow Laboratories, Scotland), supplemented with 100 U/mL penicillin G (CSL, Australia) and 100 ug/mL streptomycin (CSL, Australia). The tissue was rinsed in phosphate buffered saline (PBS; Oxoid, England) and the airway smooth muscle was chopped into 2 mm^3 pieces and digested for 2 hours in DMEM containing elastase (0.5 mg/mL: Worthington Biochemical, USA) followed by a 12 hour incubation in DMEM containing collagenase (1 mg/mL) (Worthington Biochemical, USA), at 37° C. with agitation.
The resulting cell suspension was centrifuged and washed three times in phosphate buffered saline (PBS). Following the last centrifugation step, the cells were resuspended in 25 mL of DMEM supplemented with L-glutamine (2 mM: Sigma, USA), penicillin G (100 U/mL), streptomycin (100 μg/mL), amphotericin B (2 μg/mL: Wellcome, UK) and heat-inactivated FCS (10% v/v: CSL, Australia) and seeded into 25 cm^2 culture flasks. The primary isolates were incubated for 7 to 14 days to reach confluence.
Cells were harvested weekly by 10 min exposure to trypsin (0.5%: CSL, Australia) and EDTA (1 mM in PBS: BDH, Australia) and passaged at a 1:3 ratio into 75 cm^2 flasks.
The activity of the compounds has been established in cell culture by exploring their effects on mitogen-induced increases in cell number. […]
Data are expressed as a percentage of the cell number in vehicle treated wells and are presented as the mean and standard error of the mean.

[5] = test system: bovine aortic vascular smooth muscle; experiment: bFGF-induced proliferation of bovine aortic vascular smooth muscle; assay type: cell-based; settings: 3 μM
Protocol: Experiments were also carried out with bovine aortic vascular smooth muscle with a more limited set of compounds.

Compound | effect on bFGF-induced increase in pulmonary fibroblast cell number, in words (Pulmonary fibroblasts) | pFib - bFGF (Pulmonary fibroblasts) | effect on proliferation of A549 cells, in words (FIG. 2) ([1]; concentrations below 3 μM) | A549 PIC50 [1] | HASM - GM-CSF [2] | reduction of GM-CSF production, in words (FIG. 7) ([2]; interleukin-1α 1 ng/ml) | effect on proliferation of BAEC, in words (FIG. 4) ([3]; concentrations below 3 μM) | Cell number (% control) bFGF ([4]; analogue 1 μM) | reduction of bFGF (300 pM) induced proliferation [5] [%] | IC50 [1] [µM] | effect on proliferation of A549 cells, in words (FIG. 2) ([1]; concentration not given) | effect on proliferation of BAEC, in words (FIG. 4) ([3]; concentration not given) | Cell number (% control) bFGF ([4]; analogue 10 μM) | pFib - bFGF (Pulmonary fibroblasts; listed as 4NOM)
COc1cc2c(cc1O)C(=NOCc1ccc([N+](=O)[O-])cc1)C[C@@H]1[C@@H]2CC[C@]2(C)[C@@H](O)CC[C@@H]12 [CP-DM-2-11-7, 2-methoxy-6-(4-nitrobenzyloxy)iminoestradiol] | significantly reduced the proliferative response | 63 ± 15* | no detectable effect | 4.89 | 45 ± 8* | reduced GM-CSF production to greater extent than 2MEO | no detectable effect | 116.6 ± 6.6 (14) % control | 75±14 |  |  |  |  | 
COc1cc2c(cc1O)/C(=N/OCc1cc(F)cc(F)c1)C[C@@H]1[C@@H]2CC[C@]2(C)[C@@H](O)CC[C@@H]12 [CP-DM-4-35, 6-(3,5-difluorobenzyloxy)imino-2-methoxyestradiol] |  | 22 ± 14 |  |  |  |  |  |  |  | 3.16 |  |  |  | 
C[C@]12CC[C@@H]3c4ccc(O)cc4CC[C@H]3[C@@H]1CC/C2=N\OCc1cccc([N+](=O)[O-])c1 [CP-DM-3-102, estrone-17-(3-nitrobenzyl)oxime] |  | 96 ± 4* |  |  |  |  |  |  |  | 12.6 |  |  |  | 
COc1cc2c(cc1O)CC[C@@H]1[C@@H]2CC[C@]2(C)[C@@H](O)CC[C@@H]12 [2-methoxyestradiol, reference compound] |  | 62 ± 20* |  | 6.00 | 29 ± 10* |  |  |  | 87±6 |  | effective inhibitor | effective inhibitor | 87.5 ± 13.8 (4) % control | 
COc1cc2c(cc1O)C(=NOCc1ccc([N+](=O)[O-])cc1)C[C@@H]1[C@@H]2CC[C@]2(C)C(=NO)CC[C@@H]12 [CP-DM-3-91, 2-methoxy-6-(4-nitrobenzyloxy)iminoestrone-17-oxime] | prevented | 49 ± 14* |  | 4.99 | 43 ± 11* |  |  | 111.1 ± 10.9 (4) % control | 93±4 |  |  |  |  | significant inhibitory activity
COc1cc2c(cc1O)/C(=N/OCc1ccc(SC(F)(F)F)cc1)C[C@@H]1[C@@H]2CC[C@]2(C)[C@@H](O)CC[C@@H]12 [CP-DM-4-65, 2-methoxy-6-(4-trifluoromethylthiobenzyloxy)iminoestradiol] |  | 32 ± 23 |  |  | 28 ± 31 |  |  |  |  | 3.16 |  |  |  | 
